# According to patent publication US7781421B2, “Neuroactive 13, 24-cyclo-18, 21-dinorcholanes and structurally related pentacyclic steriods” (Washington University, priority 2003, dated 2010):
# Where two headings read alike, the source gives them in different places.
# Key:
# [1] = molecular target: T1, rat α1β2γ2 GABAA Receptor (Rattus norvegicus, UniProt P18508+P62813+P63138, INS375LLRMFSFK); assay: Xenopus oocyte two-electrode voltage-clamp electrophysiology; type: cell-based; conditions: for Oocyte electrophysiology, ratio of currents in presence/absence of compound, 0.1 μM: 0.1 μM compound co-applied with 2 μM GABA; for Oocyte electrophysiology, ratio of currents in presence/absence of compound, 0.1 μM / Oocyte electrophysiology, ratio of currents in presence/absence of compound, 1 μM / Oocyte electrophysiology, ratio of currents in presence/absence of compound, 10 μM: −70 mV; for Oocyte electrophysiology, ratio of currents in presence/absence of compound, 1 μM: 1 μM compound co-applied with 2 μM GABA; for Gating (10 μM), ratio of compound only current/2 μM GABA current: direct current gated by 10 μM compound in the absence of GABA; for Oocyte electrophysiology, ratio of currents in presence/absence of compound, 10 μM: 10 μM compound co-applied with 2 μM GABA
# T1 construct: from linearized pBluescript vectors containing receptor coding regions; expressed in transfected cells; host or cells: Xenopus laevis oocytes injected with in vitro transcribed capped mRNA
# Description: Stage V-VI oocytes were harvested from sexually mature female Xenopus laevis (Xenopus One, Northland, Mich.) under 0.1% tricaine (3-aminobenzoic acid ethyl ester) anesthesia. Oocytes were defolliculated by shaking for 20 min at 37° C. in collagenase (2 mg/ml) dissolved in calcium-free solution containing (in mM): 96 NaCl, 2 KCl, 1 MgCl2, and 5 HEPES at pH 7.4. Capped mRNA, encoding rat GABAA receptor α1, β2 and γ2L subunits was transcribed in vitro using the mMESSAGE mMachine Kit (Ambion, Austin, Tex.) from linearized pBluescript vectors containing receptor coding regions. Subunit transcripts were injected in equal parts (20-40 ng total RNA) 8-24 hours following defolliculation. Oocytes were incubated up to 5 days at 18° C. in ND96 medium containing (in mM): 96 NaCl, 1 KCl, 1 MgCl2, 2 CaCl2 and 5 HEPES at pH 7.4, supplemented with pyruvate (5 mM), penicillin (100 U/ml), streptomycin (100 μg/ml) and gentamycin (50 μg/ml). The cDNAs for the rat GABAA-receptor subunits were originally provided by A. Tobin, University of California, Los Angels (α1), P. Malherbe, Hoffman-La Roche, Switzerland (β2), C. Fraser, National Institute on Alcohol Abuse and Alcoholism (γ2L).
# Two-electrode voltage-clamp experiments were performed with a Warner OC725 amplifier 2-5 days following RNA injection. The extracellular recording solution was ND96 medium with no supplements. Intracellular recording pipettes were filled with 3 M KCl and had open tip resistances of ˜1 MΩ. Drugs were applied from a common tip via a gravity-driven multibarrel drug-delivery system. Steroids were simultaneously co-applied with GABA. Cells were clamped at −70 mV for all experiments, and peak current during 20 s drug applications was measured. Data acquisition and analysis were performed with pCLAMP software (Axon Instruments, California). Statistical differences were determined using a two-tailed Student's t-test.
# The GABA concentration used for the control response was 2 μM. Each compound was evaluated on at least four different oocytes at the concentrations indicated, and the results reported are the ratio of the currents measured in the presence/absence of added compound. (G) represents direct current gated by 10 μM compound in the absence of GABA, and this current is reported as the ratio of compound only current/2 μM GABA current. Error limits are calculated as standard error of the means.
# [2] = tested on: Xenopus laevis tadpoles; assay: Tadpole loss of righting (LRR) and swimming (LSR) reflexes; type: in vivo; conditions: 3 h equilibration at room temperature; for EC50: read-out: LSR EC50 (loss of swimming response)
# Description: Tadpole LRR was measured as described previously. (See, Wittmer, L. L., et al., Enantioselectivity of steroid-induced γ-aminobutyric acidA receptor modulation and anesthesia, Mol. Phar., 1996, 50:1581-1586). Briefly, groups of 10 early prelimb-bud stage Xenopus laevis tadpoles (Nasco, Fort Atkinson, Wis.) were placed in 100 mL of oxygenated Ringer's stock solution containing various concentrations of compound. Compounds were added from a 10 mM DMSO stock (final concentration of DMSO in test solutions ≦0.1%). After equilibrating at room temperature for 3 h, tadpoles were evaluated using the LRR and LSR behavioral endpoints. LRR was defined as failure of the tadpole to right itself within 5 sec after being flipped by a smooth glass rod. LSR was defined as failure of the tadpole to swim when touched by a smooth glass rod. In general, the tadpoles regained their righting and swimming reflexes when placed in fresh oxygenated Ringer's solution. Control beakers containing up to 0.6% DMSO produced no LRR or LSR in tadpoles.
# Tadpole LRR and LSR concentration-response curves were fit using Sigma Plot version 3.0 to the Hill equation f=Rmax/{1+([conc]/EC50)^n}
# where Rmax is the maximum effect, [conc] is the steroid concentration, EC50 is the half-maximal effective concentration, and n is the Hill coefficient.
# [3] = molecular target: GABAA receptor ([35S]-TBPS binding site, rat brain cortical membranes); assay: Displacement of [35S]-TBPS binding, rat brain cortical membranes; conditions: 5 μM GABA, 2 nM [35S]-TBPS; ± standard error of the means
# Description: Rat brain cortical membranes were prepared with minor modifications of the method previously reported. (Hawkinson, J. E., et al., Correlation of Neuroactive Steroid Modulation of [^35S]t-Butylbicyclophosophorothionate and [^3H]Flunitrazepam Binding and γ-Aminobutyric AcidA Receptor Function, Mol. Pharmacol., 1994, 46, 977-985). Briefly, frozen rat cerebral cortices (Pel-freez, Rogers, Ak.) were thawed and homogenized in 10 volumes of ice-cold 0.32 M sucrose using a glass/Teflon pestle. The homogenate was centrifuged at 1500×g for 10 min at 4° C. The resultant supernatant was centrifuged at 10,000×g for 30 min at 4° C. The pellet (P2) from this centrifugation was resuspended in 200 mM NaCl, 50 mM potassium phosphate buffer, pH 7.4, and centrifuged at 10,000×g for 20 min at 4° C. This washing procedure was done a total of three times, and then pellets were resuspended in buffer (˜4 mL/brain) using a glass/Teflon pestle. The membrane suspension was aliquoted, frozen in liquid nitrogen, and stored at −80° C. prior to use.
# [^35S]-TBPS Binding assays were done according to the procedure described previously (Hawkinson, J. E., et al., Correlation of Neuroactive Steroid Modulation of [^35S]t-Butylbicyclophosophorothionate and [^3H]Flunitrazepam Binding and γ-Aminobutyric AcidA Receptor Function, Mol. Pharmacol., 1994, 46, 977-985) with modifications. Briefly, aliquots of membrane solution (0.5 mg/mL final protein concentration in assay) were incubated with 5 μM GABA, 2 nM [^35S]-TBPS (45-120 Ci/mmol), and 5 μL aliquots of steroid in DMSO solution (final assay concentrations ranged from 1 nM to 10 μM), and brought to a final volume of 1 mL with 200 mM NaCl, 50 mM potassium phosphate buffer, pH 7.4. […] Assay tubes were incubated for 2 hr at room temperature. A Brandel (Gaithersburg, Md.) cell harvester was used for filtration of the assay tubes through Whatman/GF/C glass filter paper. Filter paper was rinsed with 4 mL of ice-cold buffer three times. Radioactivity bound to the filters was read by liquid scintillation counter and data was fit using Sigma Plot version 3.0 to the Hill equation i. f=Rmax/{1+([conc]/IC50)^n}
# Where Rmax is the maximal effect, [conc] is steroid concentration, IC50 is the half-maximal inhibitor concentration and n is the Hill coefficient. Each data point was determined in triplicate and 2-3 full concentration-response curves were generated for each steroid.
# T1 sequence (P62813 28-455, stated change not applied): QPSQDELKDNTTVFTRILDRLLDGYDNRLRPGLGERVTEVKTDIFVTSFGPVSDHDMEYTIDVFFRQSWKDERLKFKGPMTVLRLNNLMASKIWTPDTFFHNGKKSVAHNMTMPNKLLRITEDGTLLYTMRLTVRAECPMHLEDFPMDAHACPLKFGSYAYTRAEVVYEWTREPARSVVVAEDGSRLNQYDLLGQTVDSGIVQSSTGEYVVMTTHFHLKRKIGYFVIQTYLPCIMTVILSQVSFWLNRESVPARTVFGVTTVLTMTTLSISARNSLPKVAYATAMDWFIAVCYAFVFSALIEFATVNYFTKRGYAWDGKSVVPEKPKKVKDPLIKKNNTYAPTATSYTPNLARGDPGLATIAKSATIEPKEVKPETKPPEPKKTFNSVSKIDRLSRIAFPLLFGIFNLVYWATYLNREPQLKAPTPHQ
# T1 sequence (P63138 26-474, stated change not applied): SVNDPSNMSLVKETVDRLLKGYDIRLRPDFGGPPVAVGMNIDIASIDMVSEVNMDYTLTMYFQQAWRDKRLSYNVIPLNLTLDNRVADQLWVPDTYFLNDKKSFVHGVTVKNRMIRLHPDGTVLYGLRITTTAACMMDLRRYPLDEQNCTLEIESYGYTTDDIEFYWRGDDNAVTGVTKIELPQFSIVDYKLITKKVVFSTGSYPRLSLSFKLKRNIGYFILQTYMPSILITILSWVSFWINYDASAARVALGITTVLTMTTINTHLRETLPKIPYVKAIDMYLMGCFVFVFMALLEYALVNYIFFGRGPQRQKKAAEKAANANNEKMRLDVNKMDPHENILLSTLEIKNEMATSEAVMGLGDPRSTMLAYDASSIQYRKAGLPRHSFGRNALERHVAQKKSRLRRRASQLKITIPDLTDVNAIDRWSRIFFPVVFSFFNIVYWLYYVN
# T1 sequence (P18508 with tags, fused parts or gaps INS375LLRMFSFK): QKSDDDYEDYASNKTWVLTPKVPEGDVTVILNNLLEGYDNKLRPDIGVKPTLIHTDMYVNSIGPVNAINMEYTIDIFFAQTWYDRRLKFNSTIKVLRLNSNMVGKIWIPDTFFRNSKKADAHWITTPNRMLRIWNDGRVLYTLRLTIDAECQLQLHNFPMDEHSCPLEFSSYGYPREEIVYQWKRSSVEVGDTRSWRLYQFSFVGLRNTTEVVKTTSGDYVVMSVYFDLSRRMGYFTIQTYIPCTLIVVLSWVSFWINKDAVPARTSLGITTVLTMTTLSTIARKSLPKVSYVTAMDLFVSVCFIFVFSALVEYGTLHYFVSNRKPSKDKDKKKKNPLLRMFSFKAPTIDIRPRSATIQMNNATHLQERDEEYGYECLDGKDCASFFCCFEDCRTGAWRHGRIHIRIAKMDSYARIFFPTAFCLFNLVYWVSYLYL
structure (smiles),measurement,setting,value
"CC(=O)[C@H]1CC[C@H]2[C@@H]3CC[C@H]4C[C@H](O)CC[C@]4(C)[C@H]3CC[C@]12C [Compound 1a, (3α,5α)-3-Hydroxypregnan-20-one, reference compound]",Reversibility of steroid effect on GABA current (FIG. 1A),"[1]; 500 nM compound, 2 μM GABA, GABA recovery panel",readily reversible
same,LRR ED50 (loss of righting response),[2],420 ± 40 nM
same,EC50,"[2]; Xenopus laevis, 3 h",5500 ± 480 nM
"CC(=O)[C@H]1CC[C@H]2[C@@H]3CC[C@@H]4C[C@H](O)CC[C@]4(C)[C@H]3CC[C@]12C [Compound 1b, (3α,5β)-3-Hydroxypregnan-20-one, reference compound]",LRR ED50 (loss of righting response),[2],63 ± 3 nM
same,EC50,"[2]; Xenopus laevis, 3 h",300 nM
"C[C@]12CC[C@@H](O)C[C@@H]1CCC1C3CC[C@@H]4C(=O)CCC[C@]34CCC12 (stereo partly drawn) [Compound 2a, (3α,5α)-3-Hydroxy-13,24-cyclo-18,21-dinorcholan-20-one]","Oocyte electrophysiology, ratio of currents in presence/absence of compound, 0.1 μM",[1],1.01 ± 0.03
same,"Oocyte electrophysiology, ratio of currents in presence/absence of compound, 1 μM",[1],1.44 ± 0.03
same,"Gating (10 μM), ratio of compound only current/2 μM GABA current",[1],0 ± 0.1
same,melting point,,200 to 202 °C
same,LRR ED50 (loss of righting response),[2],1360 ± 200 nM
same,EC50,"[2]; Xenopus laevis, 3 h",5450 ± 70 nM
same,IC50,[3],514 ± 64 nM
"C[C@]12CC[C@@H](O)C[C@H]1CCC1C3CC[C@@H]4C(=O)CCC[C@]34CCC12 (stereo partly drawn) [Compound 2b, (3α,5β)-3-Hydroxy-13,24-cyclo-18,21-dinorcholan-20-one]","Oocyte electrophysiology, ratio of currents in presence/absence of compound, 0.1 μM",[1],0.93 ± 0.06
same,"Oocyte electrophysiology, ratio of currents in presence/absence of compound, 1 μM",[1],1.12 ± 0.14
same,"Oocyte electrophysiology, ratio of currents in presence/absence of compound, 10 μM",[1],1.51 ± 0.13
same,"Gating (10 μM), ratio of compound only current/2 μM GABA current",[1],−0.25 ± 0.21
same,melting point,,220 to 222 °C
same,LRR ED50 (loss of righting response),[2],940 ± 550 nM
same,EC50,"[2]; Xenopus laevis, 3 h",5480 ± 80 nM
same,IC50,[3],1780 nM
"C[C@]12CC[C@@H](O)C[C@@H]1CCC1C3CC[C@@H]4CC(=O)CC[C@]34CCC12 (stereo partly drawn) [Compound 3a, (3α,5α)-3-Hydroxy-13,24-cyclo-18,21-dinorcholan-22-one]","Oocyte electrophysiology, ratio of currents in presence/absence of compound, 0.1 μM",[1],1.30 ± 0.15
same,"Oocyte electrophysiology, ratio of currents in presence/absence of compound, 1 μM",[1],1.61 ± 0.22
same,"Oocyte electrophysiology, ratio of currents in presence/absence of compound, 10 μM",[1],2.93 ± 0.68
same,"Gating (10 μM), ratio of compound only current/2 μM GABA current",[1],0.06 ± 0.06
same,melting point,,195 to 197 °C
same,LRR ED50 (loss of righting response),[2],2370 ± 470 nM
same,LSR EC50 (loss of swimming response),[2],None @ 10
same,IC50,[3],1440 nM
"CC12CCC(O)CC1CCC1C2CCC23CCC(=O)CC2CCC13 (stereo not drawn) [Compound 3b, (3α,5β)-3-Hydroxy-13,24-cyclo-18,21-dinorcholan-22-one]","Oocyte electrophysiology, ratio of currents in presence/absence of compound, 0.1 μM",[1],0.97 ± 0.01
same,"Oocyte electrophysiology, ratio of currents in presence/absence of compound, 1 μM",[1],1.11 ± 0.14
same,"Oocyte electrophysiology, ratio of currents in presence/absence of compound, 10 μM",[1],2.65 ± 0.33
same,"Gating (10 μM), ratio of compound only current/2 μM GABA current",[1],−0.10 ± 0.06
same,melting point,,175 to 177 °C
same,LRR ED50 (loss of righting response),[2],2470 ± 530 nM
same,EC50,"[2]; Xenopus laevis, 3 h",9430 ± 60 nM
same,IC50,[3],3230 nM
"C[C@]12CC[C@@H](O)C[C@@H]1CCC1C3CCC4CCC(=O)C[C@@]43CCC12 (stereo partly drawn) [Compound 4a, (3α,5α)-3-Hydroxy-13,24-cyclo-18,21-dinorcholan-23-one]","Oocyte electrophysiology, ratio of currents in presence/absence of compound, 0.1 μM",[1],1.39 ± 0.38
same,"Oocyte electrophysiology, ratio of currents in presence/absence of compound, 1 μM",[1],1.64 ± 0.15
same,"Oocyte electrophysiology, ratio of currents in presence/absence of compound, 10 μM",[1],6.49 ± 0.59
same,"Gating (10 μM), ratio of compound only current/2 μM GABA current",[1],0.32 ± 0.01
same,melting point,,185 to 186 °C
same,LRR ED50 (loss of righting response),[2],1120 ± 360 nM
same,EC50,"[2]; Xenopus laevis, 3 h",3580 ± 1080 nM
same,IC50,[3],334 ± 17 nM
"C[C@]12CC[C@@H](O)C[C@H]1CCC1C3CCC4CCC(=O)C[C@@]43CCC12 (stereo partly drawn) [Compound 4b, (3α,5β)-3-Hydroxy-13,24-cyclo-18,21-dinorcholan-23-one]","Oocyte electrophysiology, ratio of currents in presence/absence of compound, 0.1 μM",[1],0.97 ± 0.03
same,"Oocyte electrophysiology, ratio of currents in presence/absence of compound, 1 μM",[1],1.03 ± 0.08
same,"Oocyte electrophysiology, ratio of currents in presence/absence of compound, 10 μM",[1],3.17 ± 0.42
same,"Gating (10 μM), ratio of compound only current/2 μM GABA current",[1],0.01 ± 0.01
same,melting point,,197 to 198 °C
same,LRR ED50 (loss of righting response),[2],1440 ± 20 nM
same,EC50,"[2]; Xenopus laevis, 3 h",3550 ± 1150 nM
same,IC50,[3],899 ± 150 nM
"CC12CCC(O)CC1CCC1C2CCC23C(=O)CCCC2CCC13 (stereo not drawn) [Compound 5a, (3α,5α)-3-Hydroxy-13,24-cyclo-18,21-dinorcholan-24-one]","Oocyte electrophysiology, ratio of currents in presence/absence of compound, 0.1 μM",[1],1.22 ± 0.23
same,"Oocyte electrophysiology, ratio of currents in presence/absence of compound, 1 μM",[1],3.05 ± 0.79
same,"Oocyte electrophysiology, ratio of currents in presence/absence of compound, 10 μM",[1],10.73 ± 1.87
same,"Gating (10 μM), ratio of compound only current/2 μM GABA current",[1],0.39 ± 0.69
same,melting point,,203 to 204 °C
same,LRR ED50 (loss of righting response),[2],320 ± 20 nM
same,EC50,[2],1730 ± 30 nM
same,IC50,[3],301 ± 20 nM
"C=C1CC[C@]23CCC4C(CC[C@H]5C[C@H](O)CC[C@]45C)C2CC[C@@H]3C1 (stereo partly drawn) [Compound 53, (3α,5α)-22-Methylene-13,24-cyclo-18,21-dinorcholan-3-ol]","Oocyte electrophysiology, ratio of currents in presence/absence of compound, 10 μM",[1],1.05 ± 0.04
same,melting point,,187 to 188 °C
same,IC50,[3],107000 ± 29600 nM
